Source: paper PMC8197800, “Structure and Dynamics of Meprin β in Complex with a Hydroxamate-Based Inhibitor” (International Journal of Molecular Sciences, 2021)
Read-outs that look alike come from different tables or passages of the source.

Experiments:
Meprin α = conditions: cited from earlier work
Meprin β62–595 (MβΔC) [1] = biological target: T1, Meprin β62–595 (MβΔC) (Homo sapiens, UniProt Q16820); experiment: Isothermal titration calorimetry (ITC) of inhibitors to Meprin β62–595 (MβΔC); type: binding; set-up: H (one-site fit) / S (one-site fit): unit not given here; conditions: for H (one-site fit) / K (association constant, one-site fit) / N (stoichiometry, one-site fit) / S (one-site fit): ITC fit; for Kd / ΔH (binding enthalpy) / −ΔS * T (binding entropy term): ITC, 30 °C
T1 construct: His-tag (N, cleaved yes); α-mating factor secretion signal (S. cerevisiae) (N, cleaved yes); made in house; host or cells: Pichia pastoris X33
T1 sequence (Q16820 62-595): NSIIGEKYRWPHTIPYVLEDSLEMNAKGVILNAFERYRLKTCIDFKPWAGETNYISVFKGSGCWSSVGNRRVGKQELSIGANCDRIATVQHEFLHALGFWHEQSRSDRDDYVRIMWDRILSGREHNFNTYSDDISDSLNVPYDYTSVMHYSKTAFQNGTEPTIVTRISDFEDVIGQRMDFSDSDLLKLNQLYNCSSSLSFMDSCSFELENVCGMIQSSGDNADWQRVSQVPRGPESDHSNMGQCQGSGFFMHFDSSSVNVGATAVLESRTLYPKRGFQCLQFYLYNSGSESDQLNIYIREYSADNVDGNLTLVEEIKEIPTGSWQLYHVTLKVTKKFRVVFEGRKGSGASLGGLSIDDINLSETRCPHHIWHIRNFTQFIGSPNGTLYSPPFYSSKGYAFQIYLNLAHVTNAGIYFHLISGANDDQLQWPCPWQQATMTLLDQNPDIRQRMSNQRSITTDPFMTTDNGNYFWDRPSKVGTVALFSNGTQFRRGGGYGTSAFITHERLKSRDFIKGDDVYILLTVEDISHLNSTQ
Protocol: The binding affinity (KD), binding enthalpy (ΔH), binding entropy (ΔS) and stoichiometry (N) of different Meprin β inhibitors to Meprin β^62–595 (MβΔC) were determined by isothermal titration of the inhibitors to the enzyme at 30 °C using a VP-ITC microcalorimeter (MicroCal). Prior to the binding analysis, the purified Meprin β^62–595 (MβΔC) was dialyzed extensively against 40 mM Tris pH 8.0 (±150 mM NaCl). The inhibitors were diluted 1:50 from DMSO stock solutions into dialysis buffer and 2% (v/v) DMSO were added to the dialyzed enzyme solution immediately before starting the titration experiment. The instrument was operated according to the manufacturer’s instructions and the data analyzed using MicroCal ORIGIN software. The obtained binding heat was corrected by the dilution heat of the ligand, which was recorded by titration of the inhibitor (1:50 diluted) into the dialysis buffer containing 2% (v/v) DMSO. The corrected data were evaluated by a single-site binding model calculating N, KD, ΔH and ΔS.
1. MWT-S-270 (-NaCl) 2. MWT-S-270 (+ NaCl)
Figure S7: ITC binding curves for the titration of Meprin β62-595 (MβΔC) with different inhibitors. […]

Meprin β62–595 (MβΔC) [2] = biological target: T1, Meprin β62–595 (MβΔC); experiment: Proteolytic stability of concentrated Meprin β62–595 (MβΔC) with inhibitor, SDS-PAGE; conditions: 15 °C; for stability of Meprin β62–595 (MβΔC) with inhibitor added: SDS-PAGE; for degradation of Meprin β62–595 (MβΔC) on addition of inhibitor: up to 15 days, molar ratio 1:1.3 (actinonin), 1:1.2 (MWT-S-270)
Protocol: For reduction of potential heterogeneity, flexible glycosyl chains were removed by deglycosylation. The influence of different detergents and protein concentrations on the deglycosylation and stability of the enzyme has been investigated and analyzed by SDS-PAGE. […] To prevent degradation, the non-specific Meprin β inhibitor actinonin or the specific Meprin β inhibitor MWT-S-270 was added to the protein solution in a molar ratio of 1:1.3 and 1:1.2, respectively.
For the removal of surface-exposed glycosyl chains, a deglycosylation was performed prior to crystallization.
(MβΔC) before and after deglycosylation by EndoH under native conditions.
(1 picture or pasted object on this page, not shown here)

Meprin β = biological target: T2, Meprin β (Homo sapiens, UniProt Q16820); experiment: Meprin β enzyme inhibition (cleavage of quenched fluorogenic peptide Abz-YVAEAPK(Dnp)G-OH); type: biochemical
T2 construct: For the purified, truncated variant Meprin β^62–595 (MβΔC), despite reduced protein yield, identical specific activity was detected; His-tag (N, cleaved yes); made in house; host or cells: Pichia pastoris
T2 sequence (Q16820 62-595): T1 sequence (Q16820 62-595)
Protocol: The enzymatic activity of Meprin β was determined, essentially as described previously. The assay is based on the change of fluorescence intensity due to cleavage of the internally quenched peptide substrate Abz-YVAEAPK(Dnp)G-OH (λex 340 nm/λem 420 nm). For activity determination during expression and purification, the proenzyme was activated by trypsin. For activation, 100 µL of cleavage buffer (50 mM Tris/HCl, 10 mM CaCl2, pH 7.5), 50 µL Meprin β solution and 50 µL bovine trypsin 500 µg/mL (Sigma Aldrich) were mixed and incubated for 15 min at 30 °C. An aliquot of the reaction (50 µL) was mixed again with 150 µL assay buffer consisting of 40 mM Tris/HCl, pH 8.0, 0.05% Brij 30. The reaction was initiated by addition of 50 µL of substrate (final concentration 50 µM), which was dissolved in assay buffer.

[3] = 40 mM Tris pH 8.0 (no NaCl), read-out: Ki

Row | Structure (SMILES) | H (one-site fit) (Meprin β62–595 (MβΔC) [1]; Figure S7, -NaCl) | K (association constant, one-site fit) (Meprin β62–595 (MβΔC) [1]; Figure S7, -NaCl) | N (stoichiometry, one-site fit) (Meprin β62–595 (MβΔC) [1]; Figure S7, -NaCl) | S (one-site fit) (Meprin β62–595 (MβΔC) [1]; Figure S7, -NaCl) | Kd (Meprin β62–595 (MβΔC) [1]; 40 mM Tris pH 8.0 (no NaCl)) | ΔH (binding enthalpy) (Meprin β62–595 (MβΔC) [1]; 40 mM Tris pH 8.0 (no NaCl)) | −ΔS * T (binding entropy term) (Meprin β62–595 (MβΔC) [1]; 40 mM Tris pH 8.0 (no NaCl)) | stability of Meprin β62–595 (MβΔC) with inhibitor added (Meprin β62–595 (MβΔC) [2]) | degradation of Meprin β62–595 (MβΔC) on addition of inhibitor (Meprin β62–595 (MβΔC) [2]) | IC50 (Meprin β; 40 mM Tris pH 8.0 (no NaCl)) | Ki (Meprin β; [3]) | other results
1 | O=C(CN(Cc1cccc(C(=O)O)c1)Cc1cccc(C(=O)O)c1)NO [1 (270), 3-[[(3-Carboxyphenyl)methyl-[2-(hydroxyamino)-2-oxoethyl]amino]methyl]benzoic acid] | -3884 ±41.29 | 6.31E7 ±1.05E7 | 0.939 ±0.00648 | 22.9 | 16 nM | -3.884 kcal/mol | -6.939 kcal/mol | at least 15 days | prevented | – | – | IC50 (Meprin α; read-out: IC50 towards Meprin α): 16000 nM; stronger inhibition of Meprin β in comparison to Meprin α (Meprin α; selectivity Meprin β over Meprin α): more than 100 fold; H (one-site fit) (Meprin β62–595 (MβΔC) [1]; Figure S7, + NaCl): -4554 ±133,1; K (association constant, one-site fit) (Meprin β62–595 (MβΔC) [1]; Figure S7, + NaCl): 2,50E6 ±5,30E5; N (stoichiometry, one-site fit) (Meprin β62–595 (MβΔC) [1]; Figure S7, + NaCl): 1,13 ±0,0246; S (one-site fit) (Meprin β62–595 (MβΔC) [1]; Figure S7, + NaCl): 14,2; Kd (Meprin β62–595 (MβΔC) [1]; 150 mM NaCl, 40 mM Tris pH 8.0): 400 nM; ΔH (binding enthalpy) (Meprin β62–595 (MβΔC) [1]; 150 mM NaCl, 40 mM Tris pH 8.0): -4.554 kcal/mol; −ΔS * T (binding entropy term) (Meprin β62–595 (MβΔC) [1]; 150 mM NaCl, 40 mM Tris pH 8.0): -4.303 kcal/mol; IC50 (Meprin β; 150 mM NaCl, 40 mM Tris pH 8.0): 176 nM; Ki (Meprin β; 150 mM NaCl, 40 mM Tris pH 8.0, read-out: Ki): 198 nM; Ki (Meprin β; Ki, 40 mM Tris pH 8.0 (no NaCl)): 28.6 nM
2 | O=C(CN(Cc1cccc(C(=O)O)c1)Cc1ccc2c(c1)OCO2)NO [2 (416)] | -3966 ±57,47 | 4,21E6 ±6,18E5 | 1,06 ±0,0110 | 17,2 | 237 nM | -3.966 kcal/mol | -5.212 kcal/mol | – | – | 285 nM | 192 nM | –
3 | O=C(CN(Cc1ccccc1)Cc1cccc(C(=O)O)c1)NO [3 (396)] | -1138 ±32.08 | 1.34E6 ±2.22E5 | 1.09 ±0.0225 | 24.3 | 746 nM | -1.138 kcal/mol | -7.363 kcal/mol | – | – | 1280 nM | 1390 nM | –
4 | CCCCC[C@H](CC(=O)NO)C(=O)N[C@H](C(=O)N1CCC[C@H]1CO)C(C)C [actinonin, reference compound] | – | – | – | – | – | – | – | at least 15 days | prevented | – | – | –
